Results taken from US5843889A, “Glycopeptide antibiotic derivatives” (Eli Lilly and Company, priority 1997, dated 1998).
In brackets after ≈: the same amount, converted by molar mass.

Key:
Type in all cases: cell-based
[1] = system: Streptococcus pyogenes C203; assay: MIC, standard broth micro-dilution assay
Experimental: (§1) The MIC's were determined using a standard broth micro-dilution assay.

Entercoccus faecalis 276 = assay: MIC, standard broth micro-dilution assay
Experimental: (§2) The formula I compounds have in vitro and in vivo activity against Gram-positive pathogenic bacteria. The MIC's were determined using a standard broth micro-dilution assay.

[2] = system: Entercoccus gallinarum 245; assay: MIC, standard broth micro-dilution assay
Experimental: as §2

[3] = system: Entercoccus faecalis 2041; assay: MIC, standard broth micro-dilution assay
Experimental: as §2

Pedicoccus acidilacti = assay: MIC, agar dilution on brain-heart infusion agar; conditions: Pedioccccus acidilacti (mean of 10)
Pediococcus pentosaceus = assay: MIC, agar dilution on brain-heart infusion agar; conditions: Pediococcus pentosaceus (mean of 2)
Leuconostoc lactis = assay: MIC, agar dilution on brain-heart infusion agar; conditions: Leuconostoc lactis (mean of 2)
[4] = system: Leuconostoc mesenteroides; assay: MIC, agar dilution on brain-heart infusion agar; conditions: Leuconostoc mesenteroides (mean of 4)
[5] = system: Leuconostoc pseudomesenteroides; assay: MIC, agar dilution on brain-heart infusion agar
Leuconostoc citreum = assay: MIC, agar dilution on brain-heart infusion agar
Lactobacillus confusus = assay: MIC, agar dilution on brain-heart infusion agar
[6] = system: Entercoccus faecium 180-1; assay: MIC, standard broth micro-dilution assay
Experimental: as §1

Entercoccus faecium 180 = assay: MIC, standard broth micro-dilution assay
Experimental: as §1

Escherichia coli EC14 = assay: MIC, standard broth micro-dilution assay
Experimental: as §1

[7] = system: Staphylococcus aureus 446; assay: MIC, standard broth micro-dilution assay
Experimental: as §1

[8] = system: Staphylococcus aureus 447; assay: MIC, standard broth micro-dilution assay
Experimental: as §1

[9] = system: Staphylococcus aureus 489; assay: MIC, standard broth micro-dilution assay
Experimental: as §1

[10] = system: Staphylococcus aureus 491; assay: MIC, standard broth micro-dilution assay
Experimental: as §1

[11] = system: Staphylococcus aureus SA1199A; assay: MIC, standard broth micro-dilution assay
Experimental: as §1

[12] = system: Staphylococcus aureus SA1199; assay: MIC, standard broth micro-dilution assay
Experimental: as §1

[13] = system: Staphylococcus aureus X400; assay: MIC, standard broth micro-dilution assay
Experimental: as §1

[14] = system: Staphylococcus aureus X778; assay: MIC, standard broth micro-dilution assay
Experimental: as §1

[15] = system: Staphylococcus epidermidis 270; assay: MIC, standard broth micro-dilution assay
Experimental: as §1

[16] = system: Staphylococcus haemolyticus 105; assay: MIC, standard broth micro-dilution assay
Experimental: as §1

[17] = system: Staphylococcus haemolyticus 415; assay: MIC, standard broth micro-dilution assay
Experimental: as §1

[18] = system: Streptococcus pneumoniae P1; assay: MIC, standard broth micro-dilution assay
Experimental: as §1

[19] = system: Staphylococcus aureus S13E
Experimental: as §1

[20] = system: Staphylococcus aureus SA1199B
Experimental: as §1

CCCCCCCCCCCCOc1ccc(CNC2(C)CC(OC3C(Oc4c5cc6cc4Oc4ccc(cc4Cl)C(OC4CC(C)(N)C(O)C(C)O4)C4NC(=O)C(NC(=O)C6NC(=O)C(CC(N)=O)NC(=O)C(NC(=O)C(CC(C)C)NC)C(O)c6ccc(c(Cl)c6)O5)c5ccc(O)c(c5)-c5c(O)cc(O)cc5C(C(=O)O)NC4=O)OC(CO)C(O)C3O)OC(C)C2O)cc1 (stereo not drawn) [Compound 10, 4-dodecyloxybenzyl]
MIC [1]: 0.5 µg/mL (≈ 0.268 µM) | MIC (Entercoccus faecalis 276): 18 µg/mL (≈ 9.64 µM) | MIC [2]: 8 µg/mL (≈ 4.29 µM)

CNC(CC(C)C)C(=O)NC1C(=O)NC(CC(N)=O)C(=O)NC2C(=O)NC3C(=O)NC(C(=O)NC(C(=O)O)c4cc(O)cc(O)c4-c4cc3ccc4O)C(OC3CC(C)(N)C(O)C(C)O3)c3ccc(c(Cl)c3)Oc3cc2cc(c3OC2OC(CO)C(O)C(O)C2OC2CC(C)(NCc3ccc(C=Cc4ccccc4)cc3)C(O)C(C)O2)Oc2ccc(cc2Cl)C1O (stereo not drawn) [Compound 29, 4-stilbenzyl]
MIC [3]: 0.25 µg/mL (≈ 0.14 µM) | MIC (Entercoccus faecalis 276): 0.25 µg/mL (≈ 0.14 µM) | MIC [2]: 0.25 µg/mL (≈ 0.14 µM) | MIC (Pedicoccus acidilacti): 4.0 µg/mL (≈ 2.24 µM) | MIC (Pediococcus pentosaceus): 8.0 µg/mL (≈ 4.48 µM) | MIC (Leuconostoc lactis): 5.7 µg/mL (≈ 3.19 µM) | MIC [4]: 6.7 µg/mL (≈ 3.75 µM) | MIC [5]: 16 µg/mL (≈ 8.97 µM) | MIC (Leuconostoc citreum): 32 µg/mL (≈ 17.9 µM) | MIC (Lactobacillus confusus): 8 µg/mL (≈ 4.48 µM)

CNC(CC(C)C)C(=O)NC1C(=O)NC(CC(N)=O)C(=O)NC2C(=O)NC3C(=O)NC(C(=O)NC(C(=O)O)c4cc(O)cc(O)c4-c4cc3ccc4O)C(OC3CC(C)(N)C(O)C(C)O3)c3ccc(c(Cl)c3)Oc3cc2cc(c3OC2OC(CO)C(O)C(O)C2OC2CC(C)(NCc3ccc(-c4ccc(-c5ccccc5)cc4)cc3)C(O)C(C)O2)Oc2ccc(cc2Cl)C1O (stereo not drawn) [Compound 36, 4-[4-biphenyl]benzyl]
MIC [3]: 1 µg/mL (≈ 0.545 µM) | MIC (Entercoccus faecalis 276): 2 µg/mL (≈ 1.09 µM) | MIC [2]: 0.25 µg/mL (≈ 0.136 µM) | MIC (Pedicoccus acidilacti): 9.2 µg/mL (≈ 5.01 µM) | MIC (Pediococcus pentosaceus): 16 µg/mL (≈ 8.72 µM) | MIC (Leuconostoc lactis): 16 µg/mL (≈ 8.72 µM) | MIC [4]: 16 µg/mL (≈ 8.72 µM) | MIC [5]: 32 µg/mL (≈ 17.4 µM) | MIC (Leuconostoc citreum): 32 µg/mL (≈ 17.4 µM) | MIC (Lactobacillus confusus): 32 µg/mL (≈ 17.4 µM)

CCCCCOc1ccc(-c2ccc(CNC3(C)CC(OC4C(Oc5c6cc7cc5Oc5ccc(cc5Cl)C(OC5CC(C)(N)C(O)C(C)O5)C5NC(=O)C(NC(=O)C7NC(=O)C(CC(N)=O)NC(=O)C(NC(=O)C(CC(C)C)NC)C(O)c7ccc(c(Cl)c7)O6)c6ccc(O)c(c6)-c6c(O)cc(O)cc6C(C(=O)O)NC5=O)OC(CO)C(O)C4O)OC(C)C3O)cc2)cc1 (stereo not drawn) [Compound 40, 4-[4-pentoxyphenyl]benzyl]
MIC [6]: 2 µg/mL (≈ 1.08 µM) | MIC (Entercoccus faecium 180): 1 µg/mL (≈ 0.542 µM) | MIC (Escherichia coli EC14): > 64 µg/mL | MIC [7]: 4 µg/mL (≈ 2.17 µM) | MIC [8]: 2 µg/mL (≈ 1.08 µM) | MIC [9]: 4 µg/mL (≈ 2.17 µM) | MIC [10]: 4 µg/mL (≈ 2.17 µM) | MIC [11]: 0.5 µg/mL (≈ 0.271 µM) | MIC [12]: 4 µg/mL (≈ 2.17 µM) | MIC [13]: 4 µg/mL (≈ 2.17 µM) | MIC [14]: 4 µg/mL (≈ 2.17 µM) | MIC [15]: 1 µg/mL (≈ 0.542 µM) | MIC [16]: 2 µg/mL (≈ 1.08 µM) | MIC [17]: 2 µg/mL (≈ 1.08 µM) | MIC [18]: ≤ 0.06 µg/mL | MIC [1]: ≤ 0.06 µg/mL | MIC [19]: 4 µg/mL (≈ 2.17 µM) | MIC [20]: 8 µg/mL (≈ 4.34 µM) | MIC [3]: 1 µg/mL (≈ 0.542 µM) | MIC (Entercoccus faecalis 276): 2 µg/mL (≈ 1.08 µM) | MIC [2]: 11 µg/mL (≈ 5.96 µM)

CNC(CC(C)C)C(=O)NC1C(=O)NC(CC(N)=O)C(=O)NC2C(=O)NC3C(=O)NC(C(=O)NC(C(=O)O)c4cc(O)cc(O)c4-c4cc3ccc4O)C(OC3CC(C)(N)C(O)C(C)O3)c3ccc(c(Cl)c3)Oc3cc2cc(c3OC2OC(CO)C(O)C(O)C2OC2CC(C)(NCc3ccc(SC)cc3)C(O)C(C)O2)Oc2ccc(cc2Cl)C1O (stereo not drawn) [Compound 41, 4-thiomethylbenzyl]
MIC [6]: ≤ 0.06 µg/mL | MIC (Entercoccus faecium 180): 0.25 µg/mL (≈ 0.145 µM) | MIC (Escherichia coli EC14): > 64 µg/mL | MIC [7]: 2 µg/mL (≈ 1.16 µM) | MIC [8]: 0.25 µg/mL (≈ 0.145 µM) | MIC [9]: ≤ 0.06 µg/mL | MIC [10]: 0.5 µg/mL (≈ 0.289 µM) | MIC [11]: ≤ 0.06 µg/mL | MIC [12]: ≤ 0.06 µg/mL | MIC [13]: ≤ 0.06 µg/mL | MIC [14]: 0.125 µg/mL (≈ 0.0723 µM) | MIC [15]: 0.25 µg/mL (≈ 0.145 µM) | MIC [16]: 2 µg/mL (≈ 1.16 µM) | MIC [17]: 4 µg/mL (≈ 2.31 µM) | MIC [18]: ≤ 0.06 µg/mL | MIC [1]: ≤ 0.06 µg/mL | MIC [19]: ≤ 0.06 µg/mL | MIC [20]: 0.25 µg/mL (≈ 0.145 µM) | MIC [3]: ≤ 0.06 µg/mL | MIC (Entercoccus faecalis 276): ≤ 0.06 µg/mL | MIC [2]: ≤ 0.06 µg/mL | MIC (Pedicoccus acidilacti): 71 µg/mL (≈ 41.1 µM) | MIC (Pediococcus pentosaceus): 91 µg/mL (≈ 52.6 µM) | MIC (Leuconostoc lactis): 91 µg/mL (≈ 52.6 µM) | MIC [4]: 91 µg/mL (≈ 52.6 µM) | MIC (Lactobacillus confusus): 64 µg/mL (≈ 37 µM)

CNC(CC(C)C)C(=O)NC1C(=O)NC(CC(N)=O)C(=O)NC2C(=O)NC3C(=O)NC(C(=O)NC(C(=O)O)c4cc(O)cc(O)c4-c4cc3ccc4O)C(OC3CC(C)(N)C(O)C(C)O3)c3ccc(c(Cl)c3)Oc3cc2cc(c3OC2OC(CO)C(O)C(O)C2OC2CC(C)(NCC(C)=Cc3ccc(C(C)(C)C)cc3)C(O)C(C)O2)Oc2ccc(cc2Cl)C1O (stereo not drawn) [Compound 42, 2,3-[2-methyl-3-[4-t-butylphenyl]]propenyl]
MIC [6]: ≤ 0.06 µg/mL | MIC (Entercoccus faecium 180): 0.25 µg/mL (≈ 0.141 µM) | MIC (Escherichia coli EC14): > 64 µg/mL | MIC [7]: 1 µg/mL (≈ 0.562 µM) | MIC [8]: 0.5 µg/mL (≈ 0.281 µM) | MIC [9]: 0.5 µg/mL (≈ 0.281 µM) | MIC [10]: 0.5 µg/mL (≈ 0.281 µM) | MIC [11]: ≤ 0.06 µg/mL | MIC [12]: 1 µg/mL (≈ 0.562 µM) | MIC [13]: 1 µg/mL (≈ 0.562 µM) | MIC [14]: 1 µg/mL (≈ 0.562 µM) | MIC [15]: 0.5 µg/mL (≈ 0.281 µM) | MIC [16]: 2 µg/mL (≈ 1.12 µM) | MIC [17]: 1 µg/mL (≈ 0.562 µM) | MIC [18]: ≤ 0.06 µg/mL | MIC [1]: ≤ 0.06 µg/mL | MIC [19]: 0.5 µg/mL (≈ 0.281 µM) | MIC [20]: 2 µg/mL (≈ 1.12 µM) | MIC [3]: 0.125 µg/mL (≈ 0.0703 µM) | MIC (Entercoccus faecalis 276): 8 µg/mL (≈ 4.5 µM) | MIC [2]: 1 µg/mL (≈ 0.562 µM)

CNC(CC(C)C)C(=O)NC1C(=O)NC(CC(N)=O)C(=O)NC2C(=O)NC3C(=O)NC(C(=O)NC(C(=O)O)c4cc(O)cc(O)c4-c4cc3ccc4O)C(OC3CC(C)(N)C(O)C(C)O3)c3ccc(c(Cl)c3)Oc3cc2cc(c3OC2OC(CO)C(O)C(O)C2OC2CC(C)(NCc3ccc(OC4CCCCC4)cc3)C(O)C(C)O2)Oc2ccc(cc2Cl)C1O (stereo not drawn) [Compound 124, 4-cyclohexyloxybenzyl]
MIC [3]: ≤ 0.06 µg/mL | MIC (Entercoccus faecalis 276): ≤ 0.06 µg/mL | MIC [2]: 1 µg/mL (≈ 0.562 µM) | MIC (Pedicoccus acidilacti): 20 µg/mL (≈ 11.2 µM) | MIC (Pediococcus pentosaceus): 16 µg/mL (≈ 8.99 µM) | MIC (Leuconostoc lactis): 16 µg/mL (≈ 8.99 µM) | MIC [4]: 16 µg/mL (≈ 8.99 µM) | MIC [5]: 64 µg/mL (≈ 35.9 µM) | MIC (Leuconostoc citreum): 64 µg/mL (≈ 35.9 µM) | MIC (Lactobacillus confusus): 16 µg/mL (≈ 8.99 µM)

CN[C@H](CC(C)C)C(=O)N[C@H]1C(=O)N[C@@H](CC(N)=O)C(=O)N[C@H]2C(=O)N[C@H]3C(=O)N[C@H](C(=O)N[C@H](C(=O)O)c4cc(O)cc(O)c4-c4cc3ccc4O)[C@H](O)c3ccc(c(Cl)c3)Oc3cc2cc(c3O[C@@H]2O[C@H](CO)[C@@H](O)[C@H](O)[C@H]2O[C@H]2C[C@](C)(N)[C@H](O)[C@H](C)O2)Oc2ccc(cc2Cl)[C@H]1O [vancomycin, reference compound]
MIC [3]: 2 µg/mL (≈ 1.38 µM) | MIC (Entercoccus faecalis 276): 1 µg/mL (≈ 0.69 µM) | MIC [2]: 4 µg/mL (≈ 2.76 µM) | MIC (Pedicoccus acidilacti): 891 µg/mL (≈ 615 µM) | MIC (Pediococcus pentosaceus): 1024 µg/mL (≈ 707 µM) | MIC (Leuconostoc lactis): 1024 µg/mL (≈ 707 µM) | MIC [4]: 1024 µg/mL (≈ 707 µM) | MIC [5]: > 1024 µg/mL | MIC (Leuconostoc citreum): > 1024 µg/mL | MIC (Lactobacillus confusus): 1024 µg/mL (≈ 707 µM)
